Earlier results in patent US20080103118A1, “COMPOSITION FOR IMPROVING BLOOD CHOLESTEROL LEVELS” (IOMEDIX DEVELOPMENT INTERNATIONAL SRL, priority 2006, published 2008).

Details: 117 individuals, 63 Niacin, 54 placebo

Structure (SMILES): O=C(O)c1cccnc1 [Niacin, nicotinic acid]
- high-density lipoprotein cholesterol (HDL-C): increase
- low-density lipoprotein cholesterol (LDL-C): decrease
- total cholesterol: decrease
- triglyceride levels: decrease
